Data from ChEMBL document CHEMBL5634117 (Eur J Med Chem, 2023).
pIC50: −log10 of the molar value. Calls of active or inactive are those of the source. The calls are words filed in the database; no cut-off is given here.

Columns and labels:
[1] = molecular target: T1, Mitogen-activated protein kinase 8 (Homo sapiens, UniProt P45983); test: Inhibition of human JNK1 at 10 uM in presence of ATP relative to control
[2] = molecular target: T2, Mitogen-activated protein kinase 10 (Homo sapiens, UniProt P53779); test: Inhibition of human JNK3 at 10 uM in presence of ATP relative to control
[3] = molecular target: T3, Mitogen-activated protein kinase 9 (Homo sapiens, UniProt P45984); test: Inhibition of human JNK2 at 10 uM in presence of ATP relative to control
Target sequence in this assay (P45984 whole entry, looked up): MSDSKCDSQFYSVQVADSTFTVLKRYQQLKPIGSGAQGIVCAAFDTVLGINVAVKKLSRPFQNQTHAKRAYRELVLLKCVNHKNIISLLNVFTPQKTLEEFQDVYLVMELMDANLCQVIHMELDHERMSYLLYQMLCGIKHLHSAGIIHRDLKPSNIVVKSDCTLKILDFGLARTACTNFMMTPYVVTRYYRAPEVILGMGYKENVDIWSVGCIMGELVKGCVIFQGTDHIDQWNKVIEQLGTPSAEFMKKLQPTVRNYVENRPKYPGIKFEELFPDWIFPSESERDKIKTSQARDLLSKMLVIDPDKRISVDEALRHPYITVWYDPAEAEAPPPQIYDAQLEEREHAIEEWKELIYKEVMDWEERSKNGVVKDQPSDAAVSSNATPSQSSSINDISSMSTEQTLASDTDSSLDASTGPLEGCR

[4] = molecular target: T1, Mitogen-activated protein kinase 8; test: Inhibition of human JNK1 in presence of ATP
[5] = molecular target: Voltage-gated inwardly rectifying potassium channel KCNH2 (Homo sapiens, UniProt Q12809); test: Inhibition of human ERG; assay type: toxicity
[6] = molecular target: T3, Mitogen-activated protein kinase 9; test: Inhibition of human JNK2 in presence of ATP
Target sequence in this assay (P45984 whole entry): as the sequence (P45984 whole entry, looked up) above

[7] = molecular target: T2, Mitogen-activated protein kinase 10; test: Inhibition of human JNK3 in presence of ATP
K562 [8] = test: Induction of cell cycle arrest in human K562 cells assessed as accumulation of cells at G2/M phase at 5 uM measured after 24 hrs by PI staining based flow cytometry analysis (reference value: 25.62%); assay type: functional
K562 [9] = test: Induction of apoptosis in human K562 cells assessed as early apoptotic cells at 1.25 uM incubated for 24 hrs by annexinV and propidium iodide staining based flow cytometry analysis (reference value: 1.17%); assay type: functional
K562 [10] = test: Induction of cell cycle arrest in human K562 cells assessed as accumulation of cells at G2/M phase at 1.25 uM measured after 24 hrs by PI staining based flow cytometry analysis (reference value: 25.62%); assay type: functional
K562 [11] = test: Induction of apoptosis in human K562 cells assessed as late apoptotic cells at 1.25 uM incubated for 24 hrs by annexinV and propidium iodide staining based flow cytometry analysis (reference value: 0.82%); assay type: functional
K562 [12] = test: Induction of cell cycle arrest in human K562 cells assessed as accumulation of cells at SubG1 phase at 1.25 uM measured after 24 hrs by PI staining based flow cytometry analysis (reference value: 2.21%); assay type: functional
K562 [13] = test: Induction of cell cycle arrest in human K562 cells assessed as accumulation of cells at G0/G1 phase at 5 uM measured after 24 hrs by PI staining based flow cytometry analysis (reference value: 46.72%); assay type: functional
K562 [14] = test: Induction of cell cycle arrest in human K562 cells assessed as accumulation of cells at SubG1 phase at 2.5 uM measured after 24 hrs by PI staining based flow cytometry analysis (reference value: 2.21%); assay type: functional
K562 [15] = test: Induction of cell cycle arrest in human K562 cells assessed as accumulation of cells at S phase at 1.25 uM measured after 24 hrs by PI staining based flow cytometry analysis (reference value: 24.75%); assay type: functional
K562 [16] = test: Induction of cell cycle arrest in human K562 cells assessed as accumulation of cells at S phase at 5 uM measured after 24 hrs by PI staining based flow cytometry analysis (reference value: 24.75%); assay type: functional
[17] = molecular target: T1, Mitogen-activated protein kinase 8; test: Inhibition of JNK1 (unknown origin) expressed in HEK293 cells assessed as target engagement incubated for 1 hr by NanoBRET assay; assay type: cell-based
K562 [18] = test: Induction of autophagy in human K562 cells assessed as increase in beclin-1 level at 2.5 to 5 uM measured after 24 hrs by Western blotting analysis; assay type: functional, cell-based; details: dose 2.5-5 µM
K562 [19] = test: Induction of cell cycle arrest in human K562 cells assessed as accumulation of cells at SubG1 phase at 5 uM measured after 24 hrs by PI staining based flow cytometry analysis (reference value: 2.21%); assay type: functional
K562 [20] = test: Induction of cell cycle arrest in human K562 cells assessed as accumulation of cells at S phase at 2.5 uM measured after 24 hrs by PI staining based flow cytometry analysis (reference value: 24.75%); assay type: functional
K562 [21] = test: Induction of cell cycle arrest in human K562 cells assessed as accumulation of cells at G0/G1 phase at 1.25 uM measured after 24 hrs by PI staining based flow cytometry analysis (reference value: 46.72%); assay type: functional
K562 [22] = test: Induction of apoptosis in human K562 cells assessed as late apoptotic cells at 5 uM incubated for 24 hrs by annexinV and propidium iodide staining based flow cytometry analysis (reference value: 0.82%); assay type: functional
K562 [23] = test: Induction of cell cycle arrest in human K562 cells assessed as accumulation of cells at G0/G1 phase at 2.5 uM measured after 24 hrs by PI staining based flow cytometry analysis (reference value: 46.72%); assay type: functional
K562 [24] = test: Induction of apoptosis in human K562 cells assessed as early apoptotic cells at 5 uM incubated for 24 hrs by annexinV and propidium iodide staining based flow cytometry analysis (reference value: 1.17%); assay type: functional
K562 [25] = test: Induction of apoptosis in human K562 cells assessed as early apoptotic cells at 2.5 uM incubated for 24 hrs by annexinV and propidium iodide staining based flow cytometry analysis (reference value: 1.17%); assay type: functional
Cytochrome P450 3A4 = Cytochrome P450 3A4 (Homo sapiens, UniProt P08684); test: Inhibition of CYP3A4 (unknown origin) using vivid BOMCC as substrate; assay type: ADME
K562 [26] = test: Induction of apoptosis in human K562 cells assessed as late apoptotic cells at 2.5 uM incubated for 24 hrs by annexinV and propidium iodide staining based flow cytometry analysis (reference value: 0.82%); assay type: functional
Cytochrome P450 2D6 = Cytochrome P450 2D6 (Homo sapiens, UniProt P10635); test: Inhibition of CYP2D6 (unknown origin) using vivid EOMCC as substrate; assay type: ADME
K562 [27] = test: Induction of cell cycle arrest in human K562 cells assessed as accumulation of cells at G2/M phase at 2.5 uM measured after 24 hrs by PI staining based flow cytometry analysis (reference value: 25.62%); assay type: functional

T1 sequence (P45983 whole entry): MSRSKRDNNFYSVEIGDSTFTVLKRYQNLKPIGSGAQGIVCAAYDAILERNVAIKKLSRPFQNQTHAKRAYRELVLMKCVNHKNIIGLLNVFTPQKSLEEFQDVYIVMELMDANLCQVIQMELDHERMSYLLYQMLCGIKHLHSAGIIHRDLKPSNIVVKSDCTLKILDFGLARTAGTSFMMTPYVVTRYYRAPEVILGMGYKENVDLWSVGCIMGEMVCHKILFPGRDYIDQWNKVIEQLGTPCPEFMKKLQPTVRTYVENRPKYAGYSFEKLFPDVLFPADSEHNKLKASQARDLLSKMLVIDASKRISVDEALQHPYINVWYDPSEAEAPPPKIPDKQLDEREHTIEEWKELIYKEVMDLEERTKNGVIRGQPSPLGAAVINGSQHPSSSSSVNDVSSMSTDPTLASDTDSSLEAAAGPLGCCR
T2 sequence (P53779 whole entry): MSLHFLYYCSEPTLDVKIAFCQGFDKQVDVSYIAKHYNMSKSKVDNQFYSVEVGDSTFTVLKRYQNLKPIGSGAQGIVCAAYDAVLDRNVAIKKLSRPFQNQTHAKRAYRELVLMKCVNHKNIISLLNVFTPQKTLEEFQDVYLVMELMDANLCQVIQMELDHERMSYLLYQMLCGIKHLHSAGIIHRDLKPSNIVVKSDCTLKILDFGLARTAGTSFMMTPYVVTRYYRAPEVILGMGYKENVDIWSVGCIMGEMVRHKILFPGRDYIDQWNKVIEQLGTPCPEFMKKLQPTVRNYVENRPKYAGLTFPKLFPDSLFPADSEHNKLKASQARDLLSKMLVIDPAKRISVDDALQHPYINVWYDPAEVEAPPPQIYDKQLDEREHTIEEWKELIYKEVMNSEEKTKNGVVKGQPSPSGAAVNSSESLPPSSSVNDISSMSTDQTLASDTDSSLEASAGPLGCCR
Chain of Voltage-gated inwardly rectifying potassium channel KCNH2 (Q12809 whole entry): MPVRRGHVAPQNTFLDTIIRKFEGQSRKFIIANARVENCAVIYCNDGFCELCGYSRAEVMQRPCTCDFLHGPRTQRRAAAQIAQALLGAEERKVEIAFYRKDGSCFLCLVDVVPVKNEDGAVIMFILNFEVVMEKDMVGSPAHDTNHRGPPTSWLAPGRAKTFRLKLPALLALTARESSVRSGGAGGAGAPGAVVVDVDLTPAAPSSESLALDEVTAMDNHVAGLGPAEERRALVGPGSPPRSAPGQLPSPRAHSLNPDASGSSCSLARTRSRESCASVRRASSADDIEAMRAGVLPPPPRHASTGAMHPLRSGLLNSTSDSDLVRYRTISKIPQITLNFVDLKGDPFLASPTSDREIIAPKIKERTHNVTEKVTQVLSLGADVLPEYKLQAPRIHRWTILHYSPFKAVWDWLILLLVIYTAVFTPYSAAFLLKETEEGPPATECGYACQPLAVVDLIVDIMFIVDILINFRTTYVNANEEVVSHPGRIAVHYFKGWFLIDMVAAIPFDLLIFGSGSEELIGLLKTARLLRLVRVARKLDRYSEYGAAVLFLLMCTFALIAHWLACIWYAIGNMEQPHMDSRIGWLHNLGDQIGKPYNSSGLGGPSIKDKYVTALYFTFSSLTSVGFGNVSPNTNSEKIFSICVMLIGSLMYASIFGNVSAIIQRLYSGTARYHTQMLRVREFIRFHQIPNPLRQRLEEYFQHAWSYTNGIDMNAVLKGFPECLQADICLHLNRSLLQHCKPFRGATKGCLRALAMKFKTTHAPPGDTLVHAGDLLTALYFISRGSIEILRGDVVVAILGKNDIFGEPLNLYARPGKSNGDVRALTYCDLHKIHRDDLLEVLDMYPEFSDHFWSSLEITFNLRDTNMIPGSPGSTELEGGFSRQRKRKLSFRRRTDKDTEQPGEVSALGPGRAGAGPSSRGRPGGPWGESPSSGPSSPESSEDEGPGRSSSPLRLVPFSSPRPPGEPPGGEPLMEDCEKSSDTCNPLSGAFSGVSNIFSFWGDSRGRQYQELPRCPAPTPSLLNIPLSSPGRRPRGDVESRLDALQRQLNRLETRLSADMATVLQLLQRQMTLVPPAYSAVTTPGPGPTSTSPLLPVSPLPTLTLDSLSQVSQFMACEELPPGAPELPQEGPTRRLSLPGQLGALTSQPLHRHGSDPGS
Chain of Cytochrome P450 2D6 (P10635 whole entry): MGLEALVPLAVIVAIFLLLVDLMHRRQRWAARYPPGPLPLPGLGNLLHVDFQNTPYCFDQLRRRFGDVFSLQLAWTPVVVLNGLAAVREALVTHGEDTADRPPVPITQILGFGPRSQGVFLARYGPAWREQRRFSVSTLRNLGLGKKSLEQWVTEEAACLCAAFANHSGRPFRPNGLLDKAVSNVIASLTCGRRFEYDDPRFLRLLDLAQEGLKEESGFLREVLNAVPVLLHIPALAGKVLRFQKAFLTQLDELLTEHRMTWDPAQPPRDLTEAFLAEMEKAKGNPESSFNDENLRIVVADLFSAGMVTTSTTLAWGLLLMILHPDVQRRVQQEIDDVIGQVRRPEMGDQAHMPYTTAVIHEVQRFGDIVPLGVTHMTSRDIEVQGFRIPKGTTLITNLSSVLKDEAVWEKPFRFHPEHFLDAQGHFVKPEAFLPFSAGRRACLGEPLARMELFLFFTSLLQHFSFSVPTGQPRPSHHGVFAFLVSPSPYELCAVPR
Chain of Cytochrome P450 3A4 (P08684 whole entry): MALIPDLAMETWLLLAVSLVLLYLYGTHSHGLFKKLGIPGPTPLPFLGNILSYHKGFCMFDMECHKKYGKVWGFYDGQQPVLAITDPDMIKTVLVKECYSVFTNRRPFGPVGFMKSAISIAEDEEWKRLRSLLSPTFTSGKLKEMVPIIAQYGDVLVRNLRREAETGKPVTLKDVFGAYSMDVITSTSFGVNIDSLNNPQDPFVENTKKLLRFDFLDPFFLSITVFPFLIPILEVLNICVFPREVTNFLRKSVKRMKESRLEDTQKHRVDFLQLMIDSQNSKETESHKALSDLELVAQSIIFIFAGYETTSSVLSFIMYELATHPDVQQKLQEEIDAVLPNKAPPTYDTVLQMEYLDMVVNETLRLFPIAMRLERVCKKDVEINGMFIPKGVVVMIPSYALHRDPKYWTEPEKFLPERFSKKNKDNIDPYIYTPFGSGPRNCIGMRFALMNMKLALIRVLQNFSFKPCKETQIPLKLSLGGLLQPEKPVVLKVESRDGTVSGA

Work on COc1cccc(-c2nn(C(C)(C)C)cc2-c2ccnc(NCCNS(=O)(=O)c3ccccc3)c2)c1 yielded an inhibition [1] of 3.74%.
CC(C)(C)n1cc(-c2ccnc(NCCNS(=O)(=O)c3cccc4ccccc34)c2)c(-c2cccc(O)c2)n1 was tested, and the inhibition [1] was 63.7%.
Work on COc1cccc(-c2nn(C(C)(C)C)cc2-c2ccnc(NCCCNS(=O)(=O)c3ccc(C(F)(F)F)cc3)c2)c1 yielded an inhibition [1] of 13.2%.
With CC(C)(C)n1cc(-c2ccnc(NCCCNS(=O)(=O)c3cccc(F)c3)c2)c(-c2cccc(O)c2)n1 the inhibition [2] was 98.2%, the inhibition [3] was 98.5% and the pIC50 [4] was 8.17. The inhibition [1] was 98.4%.
For COc1cccc(-c2nn(C(C)(C)C)cc2-c2ccnc(NCCNS(=O)(=O)c3ccc(F)cc3)c2)c1, the inhibition [1] was 3.91%.
COc1cccc(-c2nn(C(C)(C)C)cc2-c2ccnc(NCCCNS(=O)(=O)c3ccc(Br)cc3)c2)c1 gave an inhibition [3] of 57.7% and an inhibition [1] of 73.7%.
COc1ccc(S(=O)(=O)NCCNc2cc(-c3cn(C(C)(C)C)nc3-c3cccc(OC)c3)ccn2)cc1 showed an inhibition [1] of 9.82%.
With CC(C)(C)n1cc(-c2ccnc(NCCNS(=O)(=O)c3ccc(C(F)(F)F)cc3)c2)c(-c2cccc(O)c2)n1 the inhibition [1] was 66.6%.
In the case of CC(C)(C)n1cc(-c2ccnc(NCCNS(=O)(=O)c3ccc(Br)cc3)c2)c(-c2cccc(O)c2)n1, the inhibition [1] was 74%.
In the case of COc1cccc(-c2nn(C(C)(C)C)cc2-c2ccnc(NCCNS(=O)(=O)c3ccc(Br)cc3)c2)c1, the inhibition [1] was -6.18%.
In the case of CC(C)(C)n1cc(-c2ccnc(NCCNS(=O)(=O)c3ccc(Cl)cc3)c2)c(-c2cccc(O)c2)n1, the inhibition [1] was 78.7%.
COc1cccc(-c2nn(C(C)(C)C)cc2-c2ccnc(NCCCNS(=O)(=O)c3ccc(C)cc3)c2)c1 showed an inhibition [1] of 37.8%.
In the case of CCNC1CCNC1 (centres undefined), the pIC50 [5] was 7.89.
CC(C)(C)n1cc(-c2ccnc(NCCNS(=O)(=O)c3cccc(F)c3)c2)c(-c2cccc(O)c2)n1 showed an inhibition [1] of 86.4%.
Work on CC(C)(C)n1cc(-c2ccnc(NCCCNS(=O)(=O)c3ccccc3)c2)c(-c2cccc(O)c2)n1 yielded an inhibition [2] of 99.1%, an inhibition [3] of 98.5% and a pIC50 [4] of 8.43. The inhibition [1] was 99.4%, the pIC50 [6] was 7.64 and the pIC50 [7] was 7.69.
In the case of COc1cccc(-c2nn(C(C)(C)C)cc2-c2ccnc(NCCCNS(=O)(=O)c3cccc4ccccc34)c2)c1, the inhibition [1] was 21.3%.
In the case of CC(C)(C)n1cc(-c2ccnc(NCCNS(=O)(=O)c3ccccc3)c2)c(-c2cccc(O)c2)n1, the inhibition [1] was 81.8%.
COc1cccc(-c2nn(C(C)(C)C)cc2-c2ccnc(NCCNS(=O)(=O)c3ccc(C)cc3)c2)c1 gave an inhibition [1] of 4.68%.
In the case of COc1ccc(S(=O)(=O)NCCNc2cc(-c3cn(C(C)(C)C)nc3-c3cccc(O)c3)ccn2)cc1, the inhibition [2] was 96.2%, the inhibition [3] was 94.4% and the pIC50 [4] was 7.25. The inhibition [1] was 90.6%.
In the case of CC(C)(C)n1cc(-c2ccnc(NCCCNS(=O)(=O)c3ccc(F)cc3)c2)c(-c2cccc(O)c2)n1, the inhibition [2] was 98.5%, the inhibition [3] was 98.9% and the pIC50 [4] was 8.46. For the same compound, the inhibition [1] was 96.8%, the pIC50 [6] was 7.70 and the pIC50 [7] was 8.00.
Compound Cc1ccc(S(=O)(=O)NCCCNc2cc(-c3cn(C(C)(C)C)nc3-c3cccc(O)c3)ccn2)cc1 has an inhibition [2] of 98.2%, an inhibition [3] of 98.8% and a pIC50 [4] of 7.82. The inhibition [1] was 97%.
Work on Cc1ccc(S(=O)(=O)NCCNc2cc(-c3cn(C(C)(C)C)nc3-c3cccc(O)c3)ccn2)cc1 yielded an inhibition [1] of 85.8%.
For COc1cccc(-c2nn(C(C)(C)C)cc2-c2ccnc(NCCCNS(=O)(=O)c3ccccc3)c2)c1, the inhibition [1] was 38.8%.
Work on COc1cccc(-c2nn(C(C)(C)C)cc2-c2ccnc(NCCCNS(=O)(=O)c3cccc(F)c3)c2)c1 yielded an inhibition [1] of 29.9%.
COc1cccc(-c2nn(C(C)(C)C)cc2-c2ccnc(NCCNS(=O)(=O)c3ccc(Cl)cc3)c2)c1 gave an inhibition [1] of 0.99%.
With COc1cccc(-c2nn(C(C)(C)C)cc2-c2ccnc(NCCCNS(=O)(=O)c3ccc(F)cc3)c2)c1 the inhibition [1] was 41.4%.
COc1ccc(S(=O)(=O)NCCCNc2cc(-c3cn(C(C)(C)C)nc3-c3cccc(OC)c3)ccn2)cc1 showed an inhibition [1] of 49.2%.
For CC(C)(C)n1cc(-c2ccnc(NCCNS(=O)(=O)c3ccc(F)cc3)c2)c(-c2cccc(O)c2)n1, the inhibition [1] was 87.2%.
Work on COc1cccc(-c2nn(C(C)(C)C)cc2-c2ccnc(NCCCNS(=O)(=O)c3ccc(Cl)cc3)c2)c1 yielded an inhibition [3] of 68.2% and an inhibition [1] of 79.6%.
For COc1ccc(S(=O)(=O)NCCCNc2cc(-c3cn(C(C)(C)C)nc3-c3cccc(O)c3)ccn2)cc1, the Activity (K562 [8]) was 98.97%, the inhibition [2] was 98% and the Activity (K562 [9]) was 1.89%. The Activity (K562 [10]) was 45.33%, the Activity (K562 [11]) was 0.52% and the Activity (K562 [12]) was 1.34%. The Activity (K562 [13]) was 0.17%, the Activity (K562 [14]) was 0.34% and the Activity (K562 [15]) was 32.54%. For the same compound, the Activity (K562 [16]) was 0.34%, the pIC50 [17] was 5.55 and the Activity (K562 [18]) was “Active”. For the same compound, the Activity (K562 [19]) was 0.09%, the Activity (K562 [20]) was 29.83% and the pIC50 [5] was 5.32. It also gave an Activity (K562 [21]) of 19.83%, an inhibition [3] of 98.5% and a pIC50 [4] of 8.74. The Activity (K562 [22]) was 0.59%, the inhibition [1] was 99.6% and the Activity (K562 [23]) was 6.24%. It also gave a pIC50 [6] of 7.90, an Activity (K562 [24]) of 2.14% and an Activity (K562 [25]) of 1.94%. The pIC50 (Cytochrome P450 3A4) was 6.42, the Activity (K562 [26]) was 0.73% and the pIC50 [7] was 7.98. It also gave a pIC50 (Cytochrome P450 2D6) of 7.57 and an Activity (K562 [27]) of 62.99%.
